Data from patent publication US8772500B2, “TRPV3 modulators” (AbbVie Inc., priority 2011, dated 2014).

Key:
[1] = In vitro rat microsomal stability assay; format: in vitro ADME, rat (Sprague-Dawley)
Summary of the method: (§1)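 Stability readout reflects compound turnover by hepatic microsomes from Sprague-Dawley rats or from humans, according to the assay. Reactions at 37 °C contained NADPH, which was present in the zero-time plates as well.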

human TRPV3 = molecular target: T1, human TRPV3 (Homo sapiens, UniProt Q8NET8); assay: In vitro antagonism of recombinant human TRPV3 activation (FLIPR Tetra calcium assay, 2-APB as agonist); format: cell-based; details: HEK293 cells stably expressing human TRPV3; 2-APB 80 μM; range class; read-out: IC50 (reported range)
T1 construct: expressed in transfected cells
T1 sequence (Q8NET8 1-790): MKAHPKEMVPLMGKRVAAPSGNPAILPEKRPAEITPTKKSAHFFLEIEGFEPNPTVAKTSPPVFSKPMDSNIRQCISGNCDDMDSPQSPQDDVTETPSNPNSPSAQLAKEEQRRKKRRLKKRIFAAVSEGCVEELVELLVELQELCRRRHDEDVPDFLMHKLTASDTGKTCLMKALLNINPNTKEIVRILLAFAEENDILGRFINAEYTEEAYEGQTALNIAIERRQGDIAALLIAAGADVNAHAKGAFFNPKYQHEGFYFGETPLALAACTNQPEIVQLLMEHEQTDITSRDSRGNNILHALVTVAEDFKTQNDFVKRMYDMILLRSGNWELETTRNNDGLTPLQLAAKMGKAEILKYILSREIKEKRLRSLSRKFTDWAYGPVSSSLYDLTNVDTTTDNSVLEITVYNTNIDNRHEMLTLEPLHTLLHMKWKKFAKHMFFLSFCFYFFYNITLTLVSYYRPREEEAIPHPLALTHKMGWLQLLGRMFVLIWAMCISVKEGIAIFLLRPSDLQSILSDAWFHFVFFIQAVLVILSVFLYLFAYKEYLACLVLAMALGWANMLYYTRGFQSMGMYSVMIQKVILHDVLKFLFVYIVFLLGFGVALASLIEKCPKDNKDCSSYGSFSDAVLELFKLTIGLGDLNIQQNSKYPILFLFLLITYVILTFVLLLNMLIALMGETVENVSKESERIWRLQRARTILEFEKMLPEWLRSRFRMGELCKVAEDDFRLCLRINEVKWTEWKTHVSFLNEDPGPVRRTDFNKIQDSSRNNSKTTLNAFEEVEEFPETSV
Summary of the method: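 HEK293 cells stably expressing human TRPV3, loaded with Calcium-4 dye for 90-120 min; compound added 3 min before 2-APB at 80 μM (its EC80). Fluorescence (max minus min) over 10 min expressed as % of maximal 2-APB response without antagonist; IC50 mostly averaged from n≧2 runs.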

[2] = In vitro human microsomal stability assay; format: in vitro ADME
Summary of the method: as §1

[3] = Sprague-Dawley, rat, 0.5 h, 0.5 μM, pH 7.4
[4] = 0.5 μM substrate, 0.25 mg/mL microsomal protein, pH 7.4, 37° C., NADPH, 30 minutes

| SMILES | RAT MICROSOMAL STABILITY (% REMAINING AFTER 30 MINUTES) [1, 3] [%] | IC50 (human TRPV3) [nM] | HUMAN MICROSOMAL STABILITY (% REMAINING AFTER 30 MINUTES) ([2]; human, 0.5 h, 0.5 μM, pH 7.4) [%] | RAT MICROSOMAL STABILITY (% REMAINING AFTER 30 MINUTES) [1, 4] [%] | HUMAN MICROSOMAL STABILITY (% REMAINING AFTER 30 MINUTES) [2, 4] [%] |
| --- | --- | --- | --- | --- | --- |
| O[C@@H](c1ccccn1)C1(c2cc(C(F)(F)F)ccn2)CC(F)(F)C1 [Example 125, (R)-{3,3-difluoro-1-[4-(trifluoromethyl)pyridin-2-yl]cyclobutyl}(pyridin-2-yl)methanol] | 8.8 | 5100 to 20000 | 53 |  |  |
| O[C@H](c1ccccn1)C1(c2cc(C(F)(F)F)ccn2)CC(F)(F)C1 [Example 126, (S)-{3,3-difluoro-1-[4-(trifluoromethyl)pyridin-2-yl]cyclobutyl}(pyridin-2-yl)methanol] | 7.7 | 501 to 1000 | 21 |  |  |
| Nc1cccnc1C(O)C1(c2ccc(C(F)(F)F)cc2)CCC1 (stereo not drawn) [Example 127, (3-aminopyridin-2-yl){1-[4-(trifluoromethyl)phenyl]cyclobutyl}methanol] | 1.1 | 5100 to 20000 | 51 |  |  |
| O[C@H](c1ccccn1)C1(c2ccc(OC(F)(F)F)cc2)CC(F)(F)C1 [Example 128, (S)-{3,3-difluoro-1-[4-(trifluoromethoxy)phenyl]cyclobutyl}(pyridin-2-yl)-methanol] | 67 | 50 to 500 | 59 |  |  |
| COC1(OC)CC(c2ccc(OC(F)(F)F)cc2)(C(O)c2ccccn2)C1 (stereo not drawn) [Example 129, {3,3-dimethoxy-1-[4-(trifluoromethoxy)phenyl]cyclobutyl}(pyridin-2-yl)-methanol] | 0.01 | 50 to 500 | 46 |  |  |
| Nc1cccnc1C(O)C1(c2ccc(Cl)c(Cl)c2)CCC1 (stereo not drawn) [Example 130, (3-aminopyridin-2-yl) [1-(3,4-dichlorophenyl)cyclobutyl]methanol] | <0.01 | 1100 to 5000 | 4.0 |  |  |
| OC1CC(c2ccc(OC(F)(F)F)cc2)(C(O)c2ccccn2)C1 [Example 132, (trans)-3-[(S)-hydroxy(pyridin-2-yl)methyl]-3-[4-(trifluoromethoxy)phenyl]-cyclobutanol] | 72 | 5100 to 20000 | 81 |  |  |
| OC(c1ccccn1)C1(c2ccc(C(F)(F)F)cc2)CC(F)(F)C1 (stereo not drawn) [Example 133, {3,3-difluoro-1-[4-(trifluoromethyl)phenyl]cyclobutyl}(pyridin-2-yl)-methanol] | 61 | 50 to 500 | 73 |  |  |
| O[C@H](c1ccccn1)[C@@]1(c2ccc(Cl)c(Cl)c2)CCO1 [Example 135, (R)-[(2S)-2-(3,4-dichlorophenyl)oxetan-2-yl](pyridin-2-yl)methanol] | 3.4 | 501 to 1000 | 33 |  |  |
| O[C@H](c1ccccn1)[C@]1(c2ccc(Cl)c(Cl)c2)CCO1 [Example 136, (R)-[(2R)-2-(3,4-dichlorophenyl)oxetan-2-yl](pyridin-2-yl)methanol] | 9.5 | 50 to 500 | 24 |  |  |
| OC(c1ccccn1)C1(c2ccc(C(F)(F)F)cn2)CC(F)(F)C1 (stereo not drawn) [Example 137, {3,3-difluoro-1-[5-(trifluoromethyl)pyridin-2-yl]cyclobutyl}(pyridin-2-yl)-methanol] | >85 | 1100 to 5000 | 77 |  |  |
| OC(c1ccccn1)C1(c2ccc(Cl)c(C(F)(F)F)c2)CC(F)(F)C1 (stereo not drawn) [Example 138, {1-[4-chloro-3-(trifluoromethyl)phenyl]-3,3-difluorocyclobutyl}(pyridin-2-yl)methanol] | 18 | 501 to 1000 | 41 |  |  |
| OC(c1ccccn1)C1(c2ccc(F)c(C(F)(F)F)c2)CC(F)(F)C1 (stereo not drawn) [Example 139, {3,3-difluoro-1-[4-fluoro-3-(trifluoromethyl)phenyl]cyclobutyl}(pyridin-2-yl)methanol] | 26 | 501 to 1000 | 41 |  |  |
| CN1CCC(c2ccc(OC(F)(F)F)cc2)(C(O)c2ccccn2)CC1 (stereo not drawn) [Example 145, {1-methyl-4-[4-(trifluoromethoxy)phenyl]piperidin-4-yl}(pyridin-2-yl)-methanol] |  | 1100 to 5000 |  | 42 | 68 |
| CN1CCC(c2cccc(OC(F)(F)F)c2)(C(O)c2ccccn2)CC1 (stereo not drawn) [Example 146, {1-methyl-4-[3-(trifluoromethoxy)phenyl]piperidin-4-yl}(pyridin-2-yl)-methanol] |  | 5100 to 20000 |  | 8.9 | 84 |
| OC(c1ccccn1)C1(c2cccc(OC(F)(F)F)c2)CCNCC1 (stereo not drawn) [Example 148, pyridin-2-yl{4-[3-(trifluoromethoxy)phenyl]piperidin-4-yl}methanol] |  | 1100 to 5000 |  | 53 | >85 |
| CN1CCC(c2ccccc2OC(F)(F)F)(C(O)c2ccccn2)CC1 (stereo not drawn) [Example 149, {1-methyl-4-[2-(trifluoromethoxy)phenyl]piperidin-4-yl}(pyridin-2-yl)-methanol] |  | 5100 to 20000 |  | 62 | >85 |
| COC1CC(c2ccc(Cl)c(Cl)c2)(C(O)c2ccccn2)C1 [Example 150, (S)-[cis-1-(3,4-dichlorophenyl)-3-methoxycyclobutyl](pyridin-2-yl)methanol] | <0.01 | 1100 to 5000 | 42 |  |  |
| COC1CC(c2ccc(Cl)c(Cl)c2)([C@H](O)c2ccccn2)C1 (stereo partly drawn) [Example 151, (S)-[1-(3,4-dichlorophenyl)-3-methoxycyclobutyl](pyridin-2-yl)methanol] | <0.01 | 1100 to 5000 | 32 |  |  |
| OC(c1ccccn1)C1(c2ccc(C(F)(F)F)cc2)CNC1 (stereo not drawn) [Example 152, pyridin-2-yl{3-[4-(trifluoromethyl)phenyl]azetidin-3-yl}methanol] | >85 | 5100 to 20000 | >85 |  |  |
